The conditions of data set [1]: H2O, 20° C., cited from earlier work.
Data set [2] is described as follows: Critical micelle concentration (CMC). The format is physicochemical. The settings on record: H2O, 20° C.; approx. conversion of the mM value. The source says:
The term “critical micelle concentration” refers to the concentration of a surfactant in a polar solvent above which the surfactant molecules will spontaneously arrange as a micelle. In accordance with the invention, this value may be expressed in any convenient units of concentration, with the exception that when CMC values are undergoing comparison, the value is expressed as a molar concentration (i.e. in units of M, mM, μM, etc., as appropriate). In the present context a micelle is considered to be a colloid arrangement of surfactant molecules in a polar solvent in which the hydrophilic head groups are oriented towards the polar solvent in a substantially spherical shape and the hydrophobic tail groups are sequestered to the interior of the sphere. In the present context a reference to the CMC of a surfactant is a reference to the CMC of the surfactant in the conditions of the aqueous liquid composition of the invention (including physical conditions such as temperature), unless otherwise indicated. For convenience, this may be taken as the CMC of the surfactant in isolation in pure water at 20° C. CMC values may be calculated by any convenient means, preferably by one of the methods described in Mukerjee P., et. al, Critical Micelle Concentrations of Aqueous Surfactant Systems, United States Department of Commerce, Nat. Stnd. Ref. Data Ser., Nat. Bur. Stand., February 1971 (U.S.).

The nature of data set [3]: Turbidity of diluted mixtures, OD at 570 nm. The format is physicochemical. The settings on record: diluted from stock of 100000 ppm AG6210 and/or 25000 ppm ε-polylysine, analysed immediately. The text has this:
In general the experiments described in Examples 2 to 17 comprise two stages. First stage is the preparation of a concentrated solution of the surfactant(s) and crystal substrate in drinking water. This stage may involve the mixing of a pre-prepared stock solution(s) of the surfactant in drinking water and a pre-prepared stock solution of the substrate in drinking water. The exact procedure used is set out in each Example. The second stage is the dilution of aliquots of the stock solution with single aliquots of drinking water in glass vessels to result in diluted mixtures with varying (theoretical) concentrations of surfactant(s) and substrate as recited in the Tables of each Example. The diluted mixtures were incubated for the time and at the temperature recited in each Example before the amount of particulate matter in the mixture was assessed. This assessment was by spectrophotometer set to measure OD at a wavelength of 570 nm in Example 2 and, for Examples 3 to 17, by naked eye upon agitation of the vessel and illumination by electric light. […]
Test mixtures (100 ml) were prepared by pipetting appropriate amounts of the concentrated solution into glass flasks and adjusting the volume to 100 ml with drinking water. Mixtures were analysed immediately by measuring OD at 570 nm. […]

Data set [4] deals with E. coli. The data set can be described thus: Antimicrobial efficacy, CFU count after 30 min contact. The format is cell-based. Particulars: ε-polylysine 250 ppm, AG 6210 0. On the procedure: 100 μl of an E. coli suspension (˜1.5×10^8 CFUs) was added to 900 μl of a freshly prepared dilute ε-polylysine/AG6210 mixture of the invention (prepared as described above) and incubated for 30 min at room temperature. Reaction was stopped by adding 9 ml of neutraliser. Mixture was then diluted 1:10 and 1:100 and 100 μl of the neat mixture and each dilution was applied to agar plates. Plates were incubated for 48 hrs at 37° C. and CFUs counted.
The antimicrobial efficacy of the following dilute ε-polylysine/AG6210 mixtures, prepared in accordance with the invention, was assessed as described above.

Read-outs that look alike come from different tables or passages of the source.

This is an account of results in patent publication US10470459B2, “Antimicrobial preparations, methods for preparing the same and uses thereof to combat microorganisms” (IPABC LTD, priority 2014, dated 2019).

Regarding `CCCCCCCCCC[N+](C)(C)CCCCCCCCCC.[Cl-]` [di-n-decyldimethyl ammonium chloride], in data set [1], the CMC is on record as 1.5 mM. In the case of `CCCCCCCCCCO[C@@H]1O[C@H](CO)[C@@H](O[C@H]2O[C@H](CO)[C@@H](O)[C@H](O)[C@H]2O)[C@H](O)[C@H]1O` [n-decyl-β-D-maltopyranoside], the CMC entry in data set [1] is given as “CMC (H2O, 20° C.) of n-decyl-β-D-maltopyranoside: 1.6 mM”. As to `CCCCCCCS[C@@H]1O[C@H](CO)[C@@H](O)[C@H](O)[C@H]1O` [n-heptyl-β-D-thioglucoside], the CMC result in data set [1] is “CMC (H2O, 20° C.) of n-heptyl-β-D-thioglucoside: 29 mM”. Take `CCCCCCCCC(=O)N(C)C[C@H](O)[C@@H](O)[C@H](O)[C@H](O)CO` [n-nonanoyl-N-methylglucamine]: the CMC result in data set [1] was “CMC (H2O, 20° C.) of n-nonanoyl-N-methylglucamine: 19-25 mM”; in data set [1] (listed as N-nonanoyl-N-methylglucamine), “CMC (H2O, 20° C.) of N-nonanoyl-N-methylglucamine: 19-25 mM”. The molecule `CCCCCCCCO[C@@H]1O[C@H](CO)[C@@H](O)[C@H](O)[C@H]1O` [n-octyl-β-D-glucopyranoside] gave a CMC in data set [2] of roughly 2800 ppm. In the case of `CCCCCCCCO[C@@H]1O[C@H](CO)[C@@H](O[C@H]2O[C@H](CO)[C@@H](O)[C@H](O)[C@H]2O)[C@H](O)[C@H]1O` [n-octyl-β-D-maltopyranoside], the CMC entry in data set [1] is “CMC (H2O, 20° C.) of n-octyl-β-D-maltopyranoside: 23 mM”. Regarding alkyl-dimethylbenzyl ammonium chloride, the CMC in data set [1] is recorded as 0.7 mM.

Turning to ε-polylysine, the “Turbidity upon dilution (OD at 570 nm)” value in data set [3] is on record as “do not show turbidity”. The “CFUs in each dilution of E. coli culture” value amounted to 100 CFUs in data set [4] (dilution 1:1), 40 CFUs in data set [4] (dilution 1:10) and 25 CFUs in data set [4] (dilution 1:100).
